Source: patent US20130243847A1, “ACTIVATED CREATININE AND PRECURSORS THEREOF AS ANTIBACTERIAL AGENTS, COMPOSITIONS AND PRODUCTS CONTAINING SUCH AGENTS AND USE THEREOF” (BOARD OF REGENTS OF THE UNIVERSITY OF NEBRASKA, priority 2010, published 2013)

Legend:
Assay type in all cases: cell-based
S. aureus [1] = test: Disc diffusion assay, different carrier media (Example 2); settings: 28% by weight agent, approx. 50 μL
Procedure: For purposes of the experiments described below, test compositions were prepared by admixing antibacterially-activated creatinine (CRN) or a precursor of antibacterially-activated CRN, i.e., creatine ethyl ester (CEE), as required for the experiment at hand, with a weighed amount of a suitable carrier medium to give a final concentration of 28% by weight of the antibacterial agent, based on the total weight of the composition.
Antibacterial compositions were prepared following this procedure using a number of different aqueous and non-aqueous (anhydrous) carrier media, and evaluated for antibacterial activity in a standard disc diffusion assay. Thus, approximately 50 μL of each selected carrier containing 28% by weight of either a precursor of antibacterially-activated CRN, CEE, or antibacterially-activated CRN was added to a 6 mm disc and inverted onto a brain heart infusion agar plate that was previously spread with S. aureus at 10^5 organisms per mL. Plates were incubated at 37° C. overnight and the clear zones showing inhibition of bacterial growth were measured.

[2] = tested on: Pseudomonas aeruginosa laboratory strain 27853; test: Disc diffusion assay, CEE vs gentamicin; settings: P. aeruginosa laboratory strain 27853; 50 mg anhydrous topical cream with 28% by weight agent; gentamicin 10 μg disc
Procedure: (§1) This testing involved the use of 50 mg of an anhydrous topical cream containing the antibacterial agent of the invention in an amount of 28% by weight and 10 μg of gentamicin, impregnated into a standard commercially available disc (Remel, Lenoxa Kans.).

[3] = tested on: Staphylococcus aureus laboratory strain 29213; test: Disc diffusion assay, CEE vs gentamicin; settings: S. aureus laboratory strain 29213; 50 mg anhydrous topical cream with 28% by weight agent; gentamicin 10 μg disc
Procedure: as §1

[4] = tested on: Escherichia coli laboratory strain 35150; test: Disc diffusion assay, CEE vs gentamicin; settings: E. coli laboratory strain 35150; 50 mg anhydrous topical cream with 28% by weight agent; gentamicin 10 μg disc
Procedure: as §1

[5] = tested on: Brevibacterium linens ATCC 9175; test: Disc diffusion assay, CEE vs gentamicin; settings: B. linens ATCC 9175; 50 mg anhydrous topical cream with 28% by weight agent
Procedure: as §1

[6] = tested on: Enterococcus faecalis laboratory strain 29212; test: Disc diffusion assay, CEE vs gentamicin; settings: E. faecalis laboratory strain 29212; 50 mg anhydrous topical cream with 28% by weight agent; gentamicin 10 μg disc
Procedure: as §1

[7] = tested on: Pseudomonas aeruginosa high level resistance (HLR); test: Disc diffusion assay, CEE vs gentamicin; settings: P. aeruginosa HLR; 50 mg anhydrous topical cream with 28% by weight agent; gentamicin 10 μg disc
Procedure: as §1

[8] = tested on: Rhodotorula sp. laboratory isolate; test: Disc diffusion assay, CEE vs gentamicin; settings: 50 mg anhydrous topical cream with 28% by weight agent
Procedure: as §1

[9] = tested on: Staphylococcus aureus methicillin resistant (MRSA); test: Disc diffusion assay, CEE vs gentamicin; settings: S. aureus MRSA; 50 mg anhydrous topical cream with 28% by weight agent; gentamicin 10 μg disc
Procedure: as §1

[10] = tested on: Saccharomyces sp. isolate from baker's yeast; test: Disc diffusion assay, CEE vs gentamicin; settings: 50 mg anhydrous topical cream with 28% by weight agent
Procedure: as §1

[11] = tested on: Pseudomonas fluorescens laboratory strain; test: Disc diffusion assay, CEE vs gentamicin; settings: P. fluorescens laboratory strain; 50 mg anhydrous topical cream with 28% by weight agent
Procedure: as §1

[12] = tested on: Enterococcus faecium vancomycin resistant (VRE); test: Disc diffusion assay, CEE vs gentamicin; settings: E. faecium VRE; 50 mg anhydrous topical cream with 28% by weight agent; gentamicin 10 μg disc
Procedure: as §1

[13] = tested on: Staphylococcus epidermidis laboratory strain; test: Disc diffusion assay, CEE vs gentamicin; settings: S. epidermidis laboratory strain; 50 mg anhydrous topical cream with 28% by weight agent
Procedure: as §1

[14] = tested on: Staphylococcus aureus UMSA-1 isolate; test: Disc diffusion assay, CEE vs gentamicin; settings: S. aureus UMSA-1 isolate; 50 mg anhydrous topical cream with 28% by weight agent
Procedure: as §1

[15] = tested on: Candida albicans laboratory strain 24433; test: Disc diffusion assay, CEE vs gentamicin; settings: C. albicans laboratory strain 24433; 50 mg anhydrous topical cream with 28% by weight agent; gentamicin 10 μg disc
Procedure: as §1

[16] = tested on: Bacillus cereus laboratory strain; test: Disc diffusion assay, CEE vs gentamicin; settings: B. cereus laboratory strain; 50 mg anhydrous topical cream with 28% by weight agent
Procedure: as §1

[17] = tested on: Micrococcus luteus laboratory isolate; test: Disc diffusion assay, CEE vs gentamicin; settings: M. luteus laboratory isolate; 50 mg anhydrous topical cream with 28% by weight agent
Procedure: as §1

[18] = tested on: Bacillus subtilis laboratory strain; test: Disc diffusion assay, CEE vs gentamicin; settings: B. subtilis laboratory strain; 50 mg anhydrous topical cream with 28% by weight agent
Procedure: as §1

S. aureus [19] = test: Growth in Lederberg's broth with CEE at different concentrations (Example 3, FIG. 2A); settings: inoculum 10^4/mL, 37° C., absorbance over time
Procedure: The CEE precursor of antibacterially-activated CRN was diluted at different concentrations into Lederberg's broth (LB), which was then inoculated to 10^4/mL with S. aureus. The cultures were incubated in capped plastic tubes at 37° C. and aerated by tumbling using a tube rotating device.

## CCOC(=O)CN(C)C(=N)N [CEE, creatine ethyl ester]
S. aureus [1]; carrier hydrogel
  Zone of Inhibition: 20 mm
S. aureus [1]; carrier mineral oil
  Zone of Inhibition: 21 mm
S. aureus [1]; carrier pharmaceutical grade Lipoil (lecithin and isopropyl palmitate)
  Zone of Inhibition: 12 mm
S. aureus [1]; carrier pharmaceutical topical formulation (proprietary blend)
  Zone of Inhibition: 26 mm
S. aureus [1]; carrier polyethylene glycol 200
  Zone of Inhibition: 18 mm
S. aureus [1]; carrier polyethylene glycol 400
  Zone of Inhibition: 14 mm
S. aureus [1]; carrier red palm oil
  Zone of Inhibition: 15 mm
S. aureus [1]; carrier water/25% glycerol
  Zone of Inhibition: 15 mm
S. aureus [1]; carrier water/50% glycerol
  Zone of Inhibition: 15 mm
S. aureus [1]; carrier water
  Zone of Inhibition: 9 mm
S. aureus [1]; carrier white palm oil/corn oil (50% ea)
  Zone of Inhibition: 17 mm
S. aureus [1]; carrier white palm oil
  Zone of Inhibition: 12 mm
[2]
  Zone of Inhibition: 27 mm
[3]
  Zone of Inhibition: 26 mm
[4]
  Zone of Inhibition: 15 mm
[5]
  Zone of Inhibition: 40 mm
[6]
  Zone of Inhibition: 19 mm
[7]
  Zone of Inhibition: 25 mm
[8]
  Zone of Inhibition: 0 mm
[9]
  Zone of Inhibition: 27 mm
[10]
  Zone of Inhibition: 0 mm
[11]
  Zone of Inhibition: 18 mm
[12]
  Zone of Inhibition: 18 mm
[13]
  Zone of Inhibition: 27 mm
[14]
  Zone of Inhibition: 24 mm
[15]
  Zone of Inhibition: 0 mm
[16]
  Zone of Inhibition: 22 mm
[17]
  Zone of Inhibition: 22 mm
[18]
  Zone of Inhibition: 20 mm
S. aureus [19]
  concentration that inhibited growth of S. aureus: approximately 32 mM
